Assay results: article PMC7490411 (Signal Transduction and Targeted Therapy, 2020)
Read-outs that look alike come from different tables or passages of the source.

Assays:
[1] = system: NK cells co-seeded with Mino cells; assay: IFN-γ secretion ELISA, NK cells co-cultured with Mino cells in presence of Rituximab; assay type: cell-based, human; conditions: Mino co-culture; 0.1 to 3 μM
[2] = in vivo pharmacokinetic study; design: species or system rats; conditions: male, Sprague-Dawley, rat, plasma; for MRT inf: read-out: MRT (0- ∞)
[3] = system: REC-1 cell (MCL)-inoculated xenograft; assay: REC-1 cell subcutaneous xenograft tumor model; assay type: in vivo; conditions: for TGI: REC-1 xenograft, 14 days
[4] = system: ABL1(M351T)-phosphorylated; assay: KINOMEscan; assay type: binding; conditions: 1000 nM
[5] = system: ACVRL1; assay: KINOMEscan; assay type: binding; conditions: 1000 nM
[6] = system: ARK5; assay: KINOMEscan; assay type: binding; conditions: 1000 nM
[7] = system: BRAF(V600E); assay: KINOMEscan; assay type: binding; conditions: 1000 nM
[8] = system: BRSK1; assay: KINOMEscan; assay type: binding; conditions: 1000 nM
[9] = system: CIT; assay: KINOMEscan; assay type: binding; conditions: 1000 nM
[10] = system: CLK4; assay: KINOMEscan; assay type: binding; conditions: 1000 nM
[11] = system: CSF1R-autoinhibited; assay: KINOMEscan; assay type: binding; conditions: 1000 nM
[12] = system: CSNK1A1L; assay: KINOMEscan; assay type: binding; conditions: 1000 nM
[13] = system: DAPK3; assay: KINOMEscan; assay type: binding; conditions: 1000 nM
[14] = system: DCAMKL1; assay: KINOMEscan; assay type: binding; conditions: 1000 nM
[15] = system: DDR1; assay: KINOMEscan; assay type: binding; conditions: 1000 nM
[16] = system: DRAK2; assay: KINOMEscan; assay type: binding; conditions: 1000 nM
[17] = system: EGFR(L747-T751del,Sins); assay: KINOMEscan; assay type: binding; conditions: 1000 nM
[18] = system: EGFR(S752-I759del); assay: KINOMEscan; assay type: binding; conditions: 1000 nM
[19] = system: EPHB6; assay: KINOMEscan; assay type: binding; conditions: 1000 nM
[20] = system: ERK8; assay: KINOMEscan; assay type: binding; conditions: 1000 nM
[21] = system: FER; assay: KINOMEscan; assay type: binding; conditions: 1000 nM
[22] = system: FYN; assay: KINOMEscan; assay type: binding; conditions: 1000 nM
[23] = system: GAK; assay: KINOMEscan; assay type: binding; conditions: 1000 nM
[24] = system: GSK3A; assay: KINOMEscan; assay type: binding; conditions: 1000 nM
[25] = system: KIT(V559D,V654A); assay: KINOMEscan; assay type: binding; conditions: 1000 nM
[26] = system: LOK; assay: KINOMEscan; assay type: binding; conditions: 1000 nM
[27] = system: MAP3K2; assay: KINOMEscan; assay type: binding; conditions: 1000 nM
[28] = system: MARK1; assay: KINOMEscan; assay type: binding; conditions: 1000 nM
[29] = system: MEK6; assay: KINOMEscan; assay type: binding; conditions: 1000 nM
[30] = system: MLCK; assay: KINOMEscan; assay type: binding; conditions: 1000 nM
[31] = system: MRCKA; assay: KINOMEscan; assay type: binding; conditions: 1000 nM
[32] = system: MUSK; assay: KINOMEscan; assay type: binding; conditions: 1000 nM
[33] = system: NEK6; assay: KINOMEscan; assay type: binding; conditions: 1000 nM
[34] = system: PAK4; assay: KINOMEscan; assay type: binding; conditions: 1000 nM
[35] = system: PFTAIRE2; assay: KINOMEscan; assay type: binding; conditions: 1000 nM
[36] = system: PHKG2; assay: KINOMEscan; assay type: binding; conditions: 1000 nM
[37] = system: PIK3CA(E545K); assay: KINOMEscan; assay type: binding; conditions: 1000 nM
[38] = system: PIK3CB; assay: KINOMEscan; assay type: binding; conditions: 1000 nM
[39] = system: PKAC-alpha; assay: KINOMEscan; assay type: binding; conditions: 1000 nM
[40] = system: PKNB(M.tuberculosis); assay: KINOMEscan; assay type: binding; conditions: 1000 nM
[41] = system: RIOK1; assay: KINOMEscan; assay type: binding; conditions: 1000 nM
[42] = system: RIPK2; assay: KINOMEscan; assay type: binding; conditions: 1000 nM
[43] = system: RIPK4; assay: KINOMEscan; assay type: binding; conditions: 1000 nM
[44] = system: RPS6KA4(Kin.Dom.2-C-terminal); assay: KINOMEscan; assay type: binding; conditions: 1000 nM
[45] = system: SgK110; assay: KINOMEscan; assay type: binding; conditions: 1000 nM
[46] = system: SIK2; assay: KINOMEscan; assay type: binding; conditions: 1000 nM
[47] = system: SRPK2; assay: KINOMEscan; assay type: binding; conditions: 1000 nM
[48] = system: TNNI3K; assay: KINOMEscan; assay type: binding; conditions: 1000 nM
[49] = target: T1, TXK (Homo sapiens, UniProt P42681); assay: KINOMEscan; assay type: binding; conditions: 1000 nM
T1 construct: purchased Invitrogen (Carlsbad, CA, USA)

[50] = system: VRK2; assay: KINOMEscan; assay type: binding; conditions: 1000 nM
[51] = system: WEE2; assay: KINOMEscan; assay type: binding; conditions: 1000 nM
[52] = system: WNK1; assay: KINOMEscan; assay type: binding; conditions: 1000 nM
[53] = system: YANK2; assay: KINOMEscan; assay type: binding; conditions: 1000 nM

T1 sequence (P42681 whole entry): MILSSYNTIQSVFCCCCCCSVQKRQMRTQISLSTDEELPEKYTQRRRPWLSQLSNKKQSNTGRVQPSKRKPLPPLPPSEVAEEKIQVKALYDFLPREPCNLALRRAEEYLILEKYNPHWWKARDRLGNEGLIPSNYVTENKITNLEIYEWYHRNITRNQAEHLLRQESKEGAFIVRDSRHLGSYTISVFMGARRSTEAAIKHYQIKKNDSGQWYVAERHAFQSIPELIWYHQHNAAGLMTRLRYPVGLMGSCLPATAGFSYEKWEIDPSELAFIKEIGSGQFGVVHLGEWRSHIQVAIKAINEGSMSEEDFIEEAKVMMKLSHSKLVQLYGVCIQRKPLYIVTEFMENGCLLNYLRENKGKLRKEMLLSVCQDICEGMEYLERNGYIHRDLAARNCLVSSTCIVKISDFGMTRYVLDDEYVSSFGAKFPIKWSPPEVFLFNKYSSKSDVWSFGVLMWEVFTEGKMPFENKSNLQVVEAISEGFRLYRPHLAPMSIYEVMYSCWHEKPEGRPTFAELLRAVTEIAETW

For `C=CC(=O)Nc1cc(Nc2cc(-c3cccc(NC(=O)c4cc5c(s4)CCCC5)c3C)cn(C)c2=O)ccc1N1CCN(CC)CC1` [CHMFL-BTK-85], the “inhibition of Rituximab-induced IFN-γ secretion in NK cells” value [1] was “no apparent inhibition”, the AUC(0-inf) ([2]; iv, Rats, I.V. 1mg/kg) was 766 ± 261 ng·h/mL and the AUC(0-t) ([2]; iv, Rats, I.V. 1mg/kg) was 747 ± 263 ng·h/mL. It also gave a Cmax ([2]; iv, Rats, I.V. 1mg/kg) of 1080 ± 390 ng/mL, a Tmax ([2]; iv, Rats, I.V. 1mg/kg) of 0.02 h and a half-life ([2]; iv, Rats, I.V. 1mg/kg) of 1.6 ± 0.3 h. For the same compound, the MRT inf ([2]; iv, Rats, I.V. 1mg/kg) was 1.6 ± 0.2 h, the AUC(0-inf) ([2]; po, Rats, P.O. 10mg/kg) was 2160 ± 474 ng·h/mL and the Cmax ([2]; po, Rats, P.O. 10mg/kg) was 296 ± 67 ng/mL. The Tmax ([2]; po, Rats, P.O. 10mg/kg) was 6 h, the bioavailability ([2]; po, Rats, P.O. 10mg/kg) was 29% and the half-life ([2]; po, Rats, P.O. 10mg/kg) was 2.9 h. For the same compound, the MRT inf ([2]; po, Rats, P.O. 10mg/kg) was 6.5 ± 0.1 h, the AUC(0-t) ([2]; rats, oral administration at 10 mg/kg) was 2140 ng·h/mL and the TGI ([3]; 100 mg/kg/day) was 65%. For the same compound, the TGI ([3]; 150 mg/kg/day) was 79%, the “toxicity signs in REC-1 xenograft model” value ([3]; mouse, 100 mg/kg/day) was “without obvious signs of toxicity” and the “Percent Control” value [4] was 100%. For the same compound, the “Percent Control” value [5] was 100%, the “Percent Control” value [6] was 97% and the “Percent Control” value [7] was 100%. The “Percent Control” value [8] was 100%, the “Percent Control” value [9] was 95% and the “Percent Control” value [10] was 96%. The “Percent Control” value [11] was 100%, the “Percent Control” value [12] was 100% and the “Percent Control” value [13] was 65%. For the same compound, the “Percent Control” value [14] was 100%, the “Percent Control” value [15] was 100% and the “Percent Control” value [16] was 100%. For the same compound, the “Percent Control” value [17] was 93%, the “Percent Control” value [18] was 90% and the “Percent Control” value [19] was 69%. For the same compound, the “Percent Control” value [20] was 95%, the “Percent Control” value [21] was 83% and the “Percent Control” value [22] was 74%. For the same compound, the “Percent Control” value [23] was 100%, the “Percent Control” value [24] was 94% and the “Percent Control” value [25] was 100%. For the same compound, the “Percent Control” value [26] was 100%, the “Percent Control” value [27] was 100% and the “Percent Control” value [28] was 100%. For the same compound, the “Percent Control” value [29] was 78%, the “Percent Control” value [30] was 100% and the “Percent Control” value [31] was 100%. For the same compound, the “Percent Control” value [32] was 91%, the “Percent Control” value [33] was 100% and the “Percent Control” value [34] was 100%. For the same compound, the “Percent Control” value [35] was 99%, the “Percent Control” value [36] was 100% and the “Percent Control” value [37] was 98%. For the same compound, the “Percent Control” value [38] was 94%, the “Percent Control” value [39] was 100% and the “Percent Control” value [40] was 88%. The “Percent Control” value [41] was 100%, the “Percent Control” value [42] was 94% and the “Percent Control” value [43] was 100%. For the same compound, the “Percent Control” value [44] was 100%, the “Percent Control” value [45] was 92% and the “Percent Control” value [46] was 83%. For the same compound, the “Percent Control” value [47] was 100%, the “Percent Control” value [48] was 93% and the percent of control binding at 1 µM [49] was 82%. The “Percent Control” value [50] was 94%, the “Percent Control” value [51] was 96% and the “Percent Control” value [52] was 100%. The “Percent Control” value [53] was 77%.
